Measurements reported in PMC6843404, “Conferring the Metabolic Self-Sufficiency of the CAM Plasmid of Pseudomonas putida ATCC 17453: The Key Role of Putidaredoxin Reductase” (Microorganisms, 2019).

Legend:
Fred = target: T1, Fred (Pseudomonas putida, UniProt M4YFG7); test: spectrophotometric NADH oxidation at […] nm; assay type: biochemical; details: anaerobic
T1 construct: native, highly purified, chromosome-coded, 36 kDa homodimer
T1 sequence (M4YFG7 2-170): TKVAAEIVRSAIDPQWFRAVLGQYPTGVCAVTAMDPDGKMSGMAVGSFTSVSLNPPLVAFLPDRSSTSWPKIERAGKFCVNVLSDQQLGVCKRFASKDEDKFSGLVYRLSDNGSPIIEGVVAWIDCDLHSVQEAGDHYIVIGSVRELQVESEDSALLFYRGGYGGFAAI

PdR = target: T2, PdR (Pseudomonas putida, UniProt P16640); test: spectrophotometric NADH oxidation at […] nm; assay type: biochemical; details: anaerobic
T2 construct: gene camA
T2 sequence (P16640 1-422): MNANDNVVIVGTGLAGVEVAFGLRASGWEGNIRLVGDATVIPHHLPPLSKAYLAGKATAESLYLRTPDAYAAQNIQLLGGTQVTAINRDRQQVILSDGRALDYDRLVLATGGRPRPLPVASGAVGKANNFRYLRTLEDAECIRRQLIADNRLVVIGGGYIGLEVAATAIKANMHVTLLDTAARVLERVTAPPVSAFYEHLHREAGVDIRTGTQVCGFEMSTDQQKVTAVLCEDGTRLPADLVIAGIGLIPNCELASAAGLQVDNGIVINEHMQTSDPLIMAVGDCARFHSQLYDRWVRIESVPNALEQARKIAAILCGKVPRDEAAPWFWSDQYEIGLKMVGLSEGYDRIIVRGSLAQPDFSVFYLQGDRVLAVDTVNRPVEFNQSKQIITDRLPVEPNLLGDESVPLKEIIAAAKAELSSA

SMILES	spectrophotometric NADH oxidation at 340 nm (Fred; FMN as co-substrate)	spectrophotometric NADH oxidation at 340 nm (PdR; FMN as co-substrate)	spectrophotometric NADH oxidation at 340 nm (Fred; NADH as co-substrate)	spectrophotometric NADH oxidation at 340 nm (PdR; NADH as co-substrate)
NC(=O)C1=CN([C@@H]2O[C@H](COP(=O)(O)OP(=O)(O)OC[C@H]3O[C@@H](n4cnc5c(N)ncnc54)[C@H](O)[C@@H]3O)[C@@H](O)[C@H]2O)C=CC1 [NADH]	measuring the initial rate of enzyme-catalysed reduction of FMN by NADH	measuring the initial rate of enzyme-catalysed reduction of FMN by NADH		
Cc1cc2nc3c(=O)[nH]c(=O)nc-3n(C[C@H](O)[C@H](O)[C@H](O)COP(=O)(O)O)c2cc1C [FMN]			measuring the initial rate of enzyme-catalysed reduction of FMN by NADH	measuring the initial rate of enzyme-catalysed reduction of FMN by NADH
